For 17 compounds, inhibition in vivo results are on record in patent US4263437A, “Acetic acid derivatives of 5,6-dihydrobenzo[b]pyrido[3,2-f]thiepine and oxepine” (Nippon Chemiphar Co., Ltd., priority 1978, dated 1981).

For the assay, the system named is carrageenan-induced edema in the hind paws. The assay can be described thus: Carrageenan-induced hind paw edema in rats (oral administration). The format is in vivo, Male Wistar rats. The settings on record: Rattus norvegicus, 1 hour before 0.1 ml of 1% carrageenan, 3 hours. Here is the method: Male Wistar rats each weighing about 100 g, one group consisting of 5 to 7 animals, were orally given the compounds according to this invention, and edema was induced in the hind paws by subcutaneous injections of 0.1 ml of 1% carrageenan one hour after the administration of the test compounds. Thereafter, the volumes of the hind paws were measured by a volume differential meter.
(The carrageenan paw model is a standard test of acute inflammation.)

One may read the inhibition in vivo as how much of the control response was suppressed. Regarding `NC(=O)Cc1ccc2c(c1)CCc1cccnc1S2` [Compound 12, (5,6-Dihydro benzo[b]pyrido[3,2-f]thiepin-8yl)-acetamide], at 5 mg/kg the inhibition in vivo was 43.9%. Then `CCOC(=O)Cc1ccc2c(c1)C(=O)Cc1ccccc1S2` [Compound 3, Ethyl(10,11-dihydro-11-oxodibenzo[b,f]thiepin-2-yl)-acetate], with 50.6%; and `CCOC(=O)Cc1ccc2c(c1)CCc1ccccc1O2` [Compound 9, Ethyl (10,11-dihydro dibenzo[b,f]oxepin-2-yl)-acetate], with 63.4%; and `NC(=O)Cc1ccc2c(c1)C(=O)Cc1ccccc1S2` [Compound 2, (10,11-Dihydro-11-oxo dibenzo[b,f]thiepin-2-yl)-acetamide], with 42.1%. `O=C(O)Cc1ccc2c(c1)C(=O)Cc1ccccc1S2` [Compound 1, (10,11-Dihydro-11-oxo dibenzo[b,f]thiepin-2-yl)-acetic acid] gave an inhibition in vivo at 5 mg/kg of 58%.

In turn, `O=C(O)Cc1ccc2c(c1)CCc1cccnc1S2` [Compound 11, (5,6-Dihydro benzo[b]pyrido[3,2-f]thiepin-8-yl)-acetic acid] returned an inhibition in vivo at 5 mg/kg of 59.7%. As for `O=C(O)Cc1ccc2c(c1)CCc1ccccc1O2` [Compound 8, (10,11-Dihydro dibenzo[b,f]oxepin-2-yl)-acetic acid], the figure is 61.4%; as for `O=C(O)Cc1ccc2c(c1)CCc1ccccc1S2` [Compound 4, (10,11-Dihydro dibenzo[b,f]thiepin-2-yl)-acetic acid], 45.3%; as for `O=C(O)Cc1ccc2c(c1)C(=O)Cc1ccccc1O2` [Compound 6, (10,11-dihydro-11-oxo dibenzo[b,f]oxepin-2-yl)-acetic acid], 44.1%.

Take `CCCCC1C(=O)N(c2ccccc2)N(c2ccccc2)C1=O` [Phenylbutazone, reference compound]: the inhibition in vivo at 5 mg/kg was 20.9%. As for `O=C(O)Cc1ccc2c(c1)CCc1cccnc1O2` [Compound 14, (5,6-Dihydro benzo[b]pyrido[3,2-f]oxepin-8-yl)-acetic acid], the figure is 50.6%; as for `CCOC(=O)Cc1ccc2c(c1)C(=O)Cc1ccccc1O2` [Compound 7, Ethyl(10,11-dihydro-11-oxodibenzo[b,f]oxepin-2-yl)-acetate], 47.9%; as for `CCOC(=O)Cc1ccc2c(c1)CCc1cccnc1S2` [Compound 13, Ethyl(5,6-dihydrobenzo[b]pyrido[3,2-f]thiepin-8-yl)-acetate], 64.6%.

Compound `COC(=O)Cc1ccc2c(c1)C(=O)Cc1cccnc1S2` [Compound 10, Methyl (5,6-dihydro-6-oxo benzo[b]pyrido[3,2-f]thiepin-8-yl)-acetate] returned an inhibition in vivo at 5 mg/kg of 38.4%. As for `CCOC(=O)Cc1ccc2c(c1)CCc1cccnc1O2` [Compound 15, Ethyl(5,6-dihydrobenzo[b]pyrido[3,2-f]oxepin-8-yl)-acetate], the figure is 41.6%; as for `O=C(O)c1ccccc1Nc1cccc(C(F)(F)F)c1` [Flufenamic acid, reference compound], 29.3%; as for `CCOC(=O)Cc1ccc2c(c1)CCc1ccccc1S2` [Compound 5, Ethyl(10,11-dihydrodibenzo[b,f]thiepin-2-yl)-acetate], 46%.
